17 compounds from patent US8927570B2, “1-naphthyl-or 1-dihydroacenaphthenyl-pyrido[B]indoles and uses thereof in treating cancers” (priority 2009, dated 2015) can be followed below.

Where only a bound is given, the exact number is not on record here.

A word on the IC50: it is the concentration needed to halve the response being measured.

Series [1] has as its system HCT116 colon cancer cells. Briefly: In vitro antiproliferative activity, HCT116 colon cancer cells. The format is cell-based. The following applies: Homo sapiens, HCT-116, Table 1. As to the method:
(§1) Substituted β-carboline compounds 4 to 38 were tested for antiproliferative activity against HCT116 colon cancer cells and HPAC, Mia-PaCa2 and Panc-1 pancreatic cancer cell lines. Table 1 lists the IC50 values for the substituted β-carbolines.

The test system of series [2] is HPAC pancreatic cancer cell line. As to the kind of experiment: In vitro antiproliferative activity, HPAC pancreatic cancer cell line. The settings on record: Homo sapiens. The format is cell-based. The method, then: as §1
(§2) Substituted β-carbolines and analog compounds 39 to 57 were tested for antiproliferative activity against HPAC, Mia-PaCa2 and Panc-1 pancreatic cancer cell lines and MCF-7 and MDA-MB-468 breast cancer cell lines. Table 2 lists the IC50 values for the substituted β-carbolines and analogs thereof.

Series [3] has as its system HCT116 P53 −/−. As to the kind of experiment: In vitro antiproliferative activity, HCT116 P53 −/− cells. It is filed as cell-based. The following applies: Homo sapiens, HCT-116, Table 1. The method, then: as §1
For series [4], the system named is Panc-1 pancreatic cancer cell line. Briefly: In vitro antiproliferative activity, Panc-1 pancreatic cancer cell line. The format is cell-based, human. The settings on record: Homo sapiens. As to the method: as §2
Series [5] deals with MCF-7 breast cancer cell line. As to the kind of experiment: In vitro antiproliferative activity, MCF-7 breast cancer cell line. The format is cell-based, human. The following applies: Homo sapiens, MCF7, Table 2. The method, then:
as §2

Series [6] concerns Mia-PaCa2 pancreatic cancer cell line. Briefly: In vitro antiproliferative activity, Mia-PaCa2 pancreatic cancer cell line. The format is cell-based. The following applies: Homo sapiens. As to the method:
as §1, §2

Series [7] concerns MDA-MB-468 breast cancer cell line. Briefly: In vitro antiproliferative activity, MDA-MB-468 breast cancer cell line. It is filed as cell-based, human. The following applies: Homo sapiens, Table 2. As to the method: as §2
Series [8] deals with Panc-1 pancreatic cancer xenografts. As to the kind of experiment: Antitumor activity in nude mice bearing Panc-1 pancreatic cancer xenografts. The format is in vivo. The following applies: 40 mg/kg i.p., after 18 days. As to the method:
FIGS. 3A-3B illustrate antitumor activity on tumor mass (FIG. 3A) and on body weight (FIG. 3B) of compound 19 treatment in nude mice bearing Panc-1 human pancreatic cancer xenografts.
(§3) Nude mice bearing MDA-MB-468 breast cancer (FIGS. 2A-2B) and Panc-1 pancreatic cancer (FIGS. 3A-3B) xenografts were administered 40 mg/kg i.p. of compound 19 and tumor mass and body weights were measured daily for 18 days compared to a PEG-ethanol-saline control.

Series [9] deals with DU145 prostate cancer xenografts. As to the kind of experiment: Antitumor activity in nude mice bearing DU145 prostate cancer xenografts. The format is in vivo. As to the method:
FIGS. 4A-4B illustrate antitumor activity on tumor growth (FIG. 4A) and on body weight (FIG. 4B) of compound 19 treatment in nude mice bearing human DUI145 prostate cancer xenografts.
Nude mice bearing DU145 prostate cancer xenografts were administered i.p. 10 mg/kg, 20 mg/kg or control of compound 19 and tumor growth (FIG. 4A) and body weight (FIG. 4B) was monitored over 25 days. […]

The test system of series [10] is HCT116, MCF-7, A549, LNCaP, DU145 and PC-3 cancer cells. As to the kind of experiment: Flow cytometry, cell cycle kinetics of cancer cells. The settings on record: 15 mM in 0.1% DMSO. It is filed as cell-based, human. The method, then: (§4) Flow cytometry experiments were performed to show the effects of Compound 19, and anticancer drugs Adriamycin or Camptothecin treatment on the cell cycle kinetics of various human cells (FIGS. 8A-8I and 9A-9I), MCF-7 breast cancer cells (FIGS. 5A-5F), A549 lung cancer cells (FIGS. 7A-7I), LNCaP (FIGS. 10A-10I), DU145 (FIGS. 11A-11I) and PC-3 (FIGS. 12A-12I) prostate cancer cells, as well as cultured normal human fibroblasts (FIGS. 6A-6F). The compound or drugs were applied at a concentration of 15 mM in 0.1% DMSO as the vehicle, and cells incubated for the time point indicated in hours (hr). The control samples were treated with vehicle without compound or drug. Red histograms represent cells in the G1/G0 phase (histogram to the left) and cells in the G2/M phases (histogram to the right). The interval between the G1/G) and G2/M histograms is the S-phase of the cell cycle. The subG1/GO histograms (cyan colored) represent cells undergoing apoptosis (programmed cell death).

Series [11] concerns MDA-MB-468 breast cancer xenografts. As to the kind of experiment: Antitumor activity in nude mice bearing MDA-MB-468 breast cancer xenografts. It is filed as in vivo. The settings on record: 40 mg/kg i.p., after 18 days. As to the method: FIGS. 2A-2B illustrate antitumor activity on tumor mass (FIG. 2A) and on body weight (FIG. 2B) of compound 19 treatment in nude mice bearing human MDA-MB-468 breast cancer xenografts.
as §3

Series [12] relates to cultured normal human fibroblasts. Briefly: Flow cytometry, cell cycle kinetics of cultured normal human fibroblasts. The format is cell-based. The following applies: 15 mM in 0.1% DMSO; for selectivity between cancer cells and normal (fibroblast) cells: flow cytometry cell cycle kinetics. As to the method:
as §4
In general terms: In flow cytometry, cells or beads pass a laser one at a time.

For the compound `COc1ccc2[nH]c3c(-c4ccoc4)nccc3c2c1` [Compound 9, 1-Furan-3-yl-6-methoxy-9H-β-carboline], the IC50 in series [1] worked out at 60.9 µM; in [2] (Table 1) it was 45.1 µM; in [3] it was 53.7 µM.

For the compound `COc1ccc2[nH]c3c(-c4cccc5ccccc45)ncc(-c4ccccc4)c3c2c1` [Compound 41, 6-methoxy-1-(naphthalen-1-yl)-4-phenyl-9H-pyrido[3,4-b]indole], the half-inhibitory concentration (IC50) is above 10 µM in [4] (Table 2); 7.72 µM in [2] (Table 2); above 10 µM in [5]; 3.63 µM in series [6] (MIA PaCa-2, Table 2); above 10 µM in series [7].

Take `COc1ccc2[nH]c3c(-c4ccnc5ccccc45)nccc3c2c1` [Compound 11, 6-Methoxy-1-quinolin-4-yl-9H-β-carboline]: the IC50 in [4] (Table 1) turned out to be 0.58 µM; in series [1] it was 0.51 µM; in series [2] (Table 1), 0.56 µM; in series [6] (MIA PaCa-2, Table 1), 0.49 µM; in series [3], 0.46 µM.

For `COc1ccc2[nH]c3c(-c4cccc5ccccc45)nccc3c2c1` [Compound 19, 6-Methoxy-1-naphthalen-1-yl-9H-β-carboline], the IC50 in series [4] (Table 1) was determined as 0.29 µM; in [1], 0.13 µM; in [2] (Table 1), 0.29 µM; in series [6] (MIA PaCa-2, Table 1), 0.2 µM. Also, the body weight entry in [8] is “nor had body weight decreased”; in series [9] (10 mg/kg and 20 mg/kg i.p., over 25 days) it was “remained fairly constant”; in [11], “nor had body weight decreased”. Moreover, the tumor mass result in series [8] (vs PEG-ethanol-saline control) and in [11] (vs PEG-ethanol-saline control) was “had not increased” throughout. Besides, the “percent of tumor growth” value in series [9] (10 mg/kg i.p., at about day 7) is reported as “less than control”. Also, the “rate of tumor growth” value in [9] (10 mg/kg i.p., over the 25 days) was “about equivalent to that of control”. Moreover, the tumor growth result in series [9] (20 mg/kg i.p., over 25 days) was “significant decrease in tumor growth compared to 10 mg/kg and control”. The “cell cycle arrest mechanism in cancer cells” value (shortened to “cell cycle arrest mechanism”) in series [10] is on record as “G2/M arrest mechanism(s)”. Moreover, the “perturbation of the cell cycle of normal human cells” value in [12] (normal human fibroblasts) was “no significant perturbation”.

Turning to `c1ccc2c(-c3nccc4c3oc3ccccc34)cccc2c1` [Compound 49, 1-(naphthalen-1-yl)benzofuro[2,3-c]pyridine], the IC50 in [4] (Table 2) is above 50 µM; in series [2] (Table 2), above 50 µM; in series [5], above 50 µM; in series [6] (MIA PaCa-2, Table 2), 33.6 µM; in series [7], 50 µM.

Consider `Clc1ccc2sc3c(-c4cccc5ccccc45)nccc3c2c1` [Compound 48, 6-Chloro-1-(naphthalen-1-yl)benzo[4,5]thieno[2,3-c]pyridine], for which the IC50 in series [4] (Table 2) was above 50 µM; in [2] (Table 2), 50 µM; in series [5], 48.6 µM; in series [6] (MIA PaCa-2, Table 2), 13.5 µM; in series [7] it was 6.05 µM.

Consider `COc1cccc2c1C(=O)c1c(O)c3c(c(O)c1C2=O)C[C@@](O)(C(=O)CO)C[C@@H]3O[C@H]1C[C@H](N)[C@H](O)[C@H](C)O1` [Adriamycin], for which the “cell cycle arrest mechanism” value in series [10] is listed as “primarily G1 phase arrest”. For the same compound, the “selectivity between cancer cells and normal (fibroblast) cells” value in [12] is “did not show selectivity”.

With `COc1ccc2[nH]c3c(-c4cccc5c(F)cccc45)nccc3c2c1` [Compound 44, 1-(5-fluoronaphthalen-1-yl)-6-methoxy-9H-pyrido[3,4-b]indole], the IC50 is 2.56 µM in series [4] (Table 2); 2.37 µM in [2] (Table 2); 6.6 µM in series [5]; 0.33 µM in series [6] (MIA PaCa-2, Table 2); 1.2 µM in series [7].

With `Cn1c2ccccc2c2ccnc(-c3cccc4ccccc34)c21` [Compound 56, 9-Methyl-1-(naphthalen-1-yl)-9H-pyrido[3,4-b]indole], the IC50 in [4] (Table 2) was 33.9 µM; in series [2] (Table 2), 21.2 µM; in series [5], 50.8 µM; in series [6] (MIA PaCa-2, Table 2), 37.4 µM; in series [7] it was 14.2 µM.

With `CC[C@@]1(O)C(=O)OCc2c1cc1n(c2=O)Cc2cc3ccccc3nc2-1` [Camptothecin], the “cell cycle arrest mechanism” value in series [10] is “primarily G1 phase arrest”. The “selectivity between cancer cells and normal (fibroblast) cells” value in series [12] is “did not show selectivity”.

For the compound `CCOC(=O)c1cc2c([nH]c3ccc(OC)cc32)c(-c2cccc3ccccc23)n1` [Compound 55, Ethyl-6-methoxy-1-(naphthalen-1-yl)-9H-pyrido[3,4-b]indole-3-carboxylate], the IC50 in series [4] (Table 2) was 23.3 µM; in series [2] (Table 2), 12.9 µM; in [5], 17.6 µM; in series [6] (MIA PaCa-2, Table 2), 17.5 µM; in series [7], 5.67 µM.

Consider `COc1ccc2c(c1)[nH]c1c(-c3ccnc4ccccc34)nccc12` [Compound 10, 7-Methoxy-1-quinolin-4-yl-9H-β-carboline], for which the figures for the 50% inhibitory concentration (IC50) in [1] and in series [3] were 7 µM and 18.7 µM, respectively.

As for `Cc1ccc2[nH]c3c(-c4cccc5c(Br)cccc45)nccc3c2c1` [Compound 46, 1-(5-bromonaphthalen-1-yl)-6-methyl-9H-pyrido[3,4-b]indole], the IC50 was above 50 µM in series [4] (Table 2); above 50 µM in [2] (Table 2); above 50 µM in series [5]; 41.7 µM in series [6] (MIA PaCa-2, Table 2); above 50 µM in series [7].

For `COc1ccc2[nH]c3c(-c4cccc5c(Br)cccc45)nccc3c2c1` [Compound 45, 1-(5-bromonaphthalen-1-yl)-6-methoxy-9H-pyrido[3,4-b]indole], the IC50 in series [4] (Table 2) came to 2.92 µM; in series [2] (Table 2), 6.18 µM; in series [5] it was 6.85 µM; in series [6] (MIA PaCa-2, Table 2), 1.17 µM; in [7], 1.77 µM.

On to `Cc1cccc2[nH]c3c(-c4cccc5ccccc45)nccc3c12` [Compound 43, 5-methyl-1-(naphthalen-1-yl)-9H-pyrido[3,4-b]indole], for which the IC50 in [4] (Table 2) was 4.56 µM; in series [2] (Table 2), 4.03 µM; in series [5] it was 7.83 µM; in series [6] (MIA PaCa-2, Table 2) it was 1.17 µM; in [7], 1.41 µM.

`COc1cccc2c1[nH]c1c(-c3cccc4ccccc34)nccc12` [Compound 39, 8-methoxy-1-(naphthalen-1-yl)-9H-pyrido[3,4-b]indole]: the IC50 in series [4] (Table 2) was 26.5 µM; in series [2] (Table 2) it was 20.5 µM; in [5] it was above 10 µM; in series [6] (MIA PaCa-2, Table 2), 31.9 µM; in [7], above 10 µM.

Turning to `c1ccc2c(-c3nccc4c3sc3ccccc34)cccc2c1` [Compound 50, 1-(Naphthalen-1-yl)benzo[4,5]thieno[2,3-c]pyridine], the 50% inhibitory concentration (IC50) was above 50 µM in [4] (Table 2); above 50 µM in series [2] (Table 2); above 50 µM in [5]; above 50 µM in [6] (MIA PaCa-2, Table 2); 14.7 µM in [7].
